Test results as given in ChEMBL document CHEMBL4507302, “Data for DCP probe TP-020” (2021).

Columns and labels:
[1] = molecular target: Serine/threonine-protein kinase B-raf (Homo sapiens) (UniProt P15056); conditions: Compound concentration 1000.0 nM
[2] = molecular target: Mitogen-activated protein kinase kinase kinase 1 (Homo sapiens) (UniProt Q13233); conditions: Compound concentration 1000.0 nM
[3] = tested on: Mast/stem cell growth factor receptor Kit (Homo sapiens), P10721 [L576P]; conditions: Compound concentration 1000.0 nM
[4] = molecular target: Cyclin-dependent kinase 4 (Homo sapiens) (UniProt P11802); conditions: Compound concentration 1000.0 nM
[5] = molecular target: Histamine H1 receptor (Homo sapiens) (UniProt P35367); conditions: Compound concentration 10.0 uM
[6] = molecular target: 5-hydroxytryptamine receptor 2A (Homo sapiens) (UniProt P28223); conditions: Compound concentration 10.0 uM
[7] = molecular target: Tyrosine-protein kinase HCK (Homo sapiens) (UniProt P08631); conditions: Compound concentration 1000.0 nM
[8] = molecular target: Fibroblast growth factor receptor 2 (Homo sapiens) (UniProt P21802); conditions: Compound concentration 1000.0 nM
[9] = molecular target: Cyclin-dependent kinase 2 (Homo sapiens) (UniProt P24941); conditions: Compound concentration 1000.0 nM
[10] = molecular target: Proto-oncogene tyrosine-protein kinase ROS (Homo sapiens) (UniProt P08922); conditions: Compound concentration 1000.0 nM
[11] = molecular target: 5-hydroxytryptamine receptor 2B (Homo sapiens) (UniProt P41595); conditions: Compound concentration 10.0 uM
[12] = molecular target: Serine/threonine-protein kinase TAO2 (Homo sapiens) (UniProt Q9UL54); conditions: Compound concentration 1000.0 nM
[13] = molecular target: Receptor tyrosine-protein kinase erbB-2 (Homo sapiens) (UniProt P04626); conditions: Compound concentration 1000.0 nM
[14] = molecular target: Aurora kinase B (Homo sapiens) (UniProt Q96GD4); conditions: Compound concentration 1000.0 nM
[15] = molecular target: Receptor-type tyrosine-protein kinase FLT3 (Homo sapiens) (UniProt P36888); conditions: Compound concentration 1000.0 nM
[16] = molecular target: Megakaryocyte-associated tyrosine-protein kinase (Homo sapiens) (UniProt P42679); conditions: Compound concentration 1000.0 nM
[17] = tested on: Epidermal growth factor receptor (Homo sapiens), P00533 [L861Q]; conditions: Compound concentration 1000.0 nM
[18] = molecular target: Dual specificity tyrosine-phosphorylation-regulated kinase 1A (Homo sapiens) (UniProt Q13627); conditions: Compound concentration 1000.0 nM
[19] = molecular target: Serine/threonine-protein kinase OSR1 (Homo sapiens) (UniProt O95747); conditions: Compound concentration 1000.0 nM
[20] = molecular target: Tyrosine-protein kinase Fer (Homo sapiens) (UniProt P16591); conditions: Compound concentration 1000.0 nM
[21] = molecular target: Casein kinase I isoform epsilon (Homo sapiens) (UniProt P49674); conditions: Compound concentration 1000.0 nM
[22] = molecular target: Serine/threonine-protein kinase 17A (Homo sapiens) (UniProt Q9UEE5); conditions: Compound concentration 1000.0 nM
[23] = molecular target: cAMP-dependent protein kinase catalytic subunit PRKX (Homo sapiens) (UniProt P51817); conditions: Compound concentration 1000.0 nM
[24] = molecular target: MAP/microtubule affinity-regulating kinase 4 (Homo sapiens) (UniProt Q96L34); conditions: Compound concentration 1000.0 nM
[25] = molecular target: Testis-specific serine/threonine-protein kinase 3 (Homo sapiens) (UniProt Q96PN8); conditions: Compound concentration 1000.0 nM
Rattus norvegicus = species: Rattus norvegicus; conditions: Compound concentration 10.0 uM
[26] = molecular target: Serine/threonine-protein kinase MRCK beta (Homo sapiens) (UniProt Q9Y5S2); conditions: Compound concentration 1000.0 nM
[27] = molecular target: Phosphatidylinositol 4,5-bisphosphate 3-kinase catalytic subunit gamma isoform (Homo sapiens) (UniProt P48736); conditions: Compound concentration 1000.0 nM
[28] = molecular target: Cytoplasmic tyrosine-protein kinase BMX (Homo sapiens) (UniProt P51813); conditions: Compound concentration 1000.0 nM
[29] = tested on: Epidermal growth factor receptor (Homo sapiens), P00533 [UNDEFINED MUTATION]; conditions: Compound concentration 1000.0 nM
[30] = molecular target: Serine/threonine-protein kinase PAK 2 (Homo sapiens) (UniProt Q13177); conditions: Compound concentration 1000.0 nM
[31] = molecular target: Mu-type opioid receptor (Homo sapiens) (UniProt P35372); conditions: Compound concentration 10.0 uM
[32] = molecular target: Casein kinase I isoform alpha-like (Homo sapiens) (UniProt Q8N752); conditions: Compound concentration 1000.0 nM
[33] = molecular target: Phosphatidylinositol 5-phosphate 4-kinase type-2 gamma (Homo sapiens) (UniProt Q8TBX8); conditions: Compound concentration 1000.0 nM
[34] = molecular target: Serine/threonine-protein kinase/endoribonuclease IRE1 (Homo sapiens) (UniProt O75460); conditions: Compound concentration 1000.0 nM
[35] = molecular target: Aurora kinase C (Homo sapiens) (UniProt Q9UQB9); conditions: Compound concentration 1000.0 nM
[36] = molecular target: Maternal embryonic leucine zipper kinase (Homo sapiens) (UniProt Q14680); conditions: Compound concentration 1000.0 nM
[37] = molecular target: Calcium/calmodulin-dependent protein kinase type II subunit delta (Homo sapiens) (UniProt Q13557); conditions: Compound concentration 1000.0 nM
[38] = molecular target: Interleukin-1 receptor-associated kinase 4 (Homo sapiens) (UniProt Q9NWZ3); conditions: Compound concentration 1000.0 nM
[39] = molecular target: Serine/threonine-protein kinase TNNI3K (Homo sapiens) (UniProt Q59H18); conditions: Compound concentration 1000.0 nM
[40] = molecular target: G protein-coupled receptor kinase 4 (Homo sapiens) (UniProt P32298); conditions: Compound concentration 1000.0 nM
[41] = molecular target: Serine/threonine-protein kinase Sgk1 (Homo sapiens) (UniProt O00141); conditions: Compound concentration 1000.0 nM
[42] = tested on: Receptor-type tyrosine-protein kinase FLT3 (Homo sapiens), P36888 [N841I]; conditions: Compound concentration 1000.0 nM
[43] = molecular target: Rhodopsin kinase GRK1 (Homo sapiens) (UniProt Q15835); conditions: Compound concentration 1000.0 nM
[44] = molecular target: Tyrosine-protein kinase Fgr (Homo sapiens) (UniProt P09769); conditions: Compound concentration 1000.0 nM
[45] = molecular target: Tyrosine-protein kinase Blk (Homo sapiens) (UniProt P51451); conditions: Compound concentration 1000.0 nM

5-hydroxytryptamine receptor 2A (Homo sapiens), sequence (P28223 whole entry): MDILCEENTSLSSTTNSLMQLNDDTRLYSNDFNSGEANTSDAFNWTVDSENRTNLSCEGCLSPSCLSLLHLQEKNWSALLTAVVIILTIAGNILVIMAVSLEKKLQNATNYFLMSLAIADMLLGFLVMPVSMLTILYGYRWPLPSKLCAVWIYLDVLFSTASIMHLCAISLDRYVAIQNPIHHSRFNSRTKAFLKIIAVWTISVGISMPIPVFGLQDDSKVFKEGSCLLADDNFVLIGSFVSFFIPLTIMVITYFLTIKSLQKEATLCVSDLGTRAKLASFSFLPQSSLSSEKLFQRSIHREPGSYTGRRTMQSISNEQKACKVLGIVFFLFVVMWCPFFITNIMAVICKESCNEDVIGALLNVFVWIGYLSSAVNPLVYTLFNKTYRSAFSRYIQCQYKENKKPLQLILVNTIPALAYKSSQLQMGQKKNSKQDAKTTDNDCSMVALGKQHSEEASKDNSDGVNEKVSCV
Tyrosine-protein kinase Fgr (Homo sapiens), sequence (P09769 2-529 limits assumed): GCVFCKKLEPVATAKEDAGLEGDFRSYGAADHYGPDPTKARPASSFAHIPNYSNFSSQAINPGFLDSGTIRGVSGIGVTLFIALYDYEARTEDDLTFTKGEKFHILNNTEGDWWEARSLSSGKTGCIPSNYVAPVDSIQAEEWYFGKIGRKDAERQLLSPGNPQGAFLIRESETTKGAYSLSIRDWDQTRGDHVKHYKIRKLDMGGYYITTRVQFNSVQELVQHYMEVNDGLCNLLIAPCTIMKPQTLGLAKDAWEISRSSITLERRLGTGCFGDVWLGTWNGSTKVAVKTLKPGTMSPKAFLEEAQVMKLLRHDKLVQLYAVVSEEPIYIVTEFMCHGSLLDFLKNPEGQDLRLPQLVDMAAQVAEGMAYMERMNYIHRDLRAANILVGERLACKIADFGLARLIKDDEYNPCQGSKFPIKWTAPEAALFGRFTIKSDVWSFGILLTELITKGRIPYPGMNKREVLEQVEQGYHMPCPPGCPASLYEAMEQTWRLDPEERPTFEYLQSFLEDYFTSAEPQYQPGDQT
MAP/microtubule affinity-regulating kinase 4 (Homo sapiens), sequence (Q96L34 whole entry): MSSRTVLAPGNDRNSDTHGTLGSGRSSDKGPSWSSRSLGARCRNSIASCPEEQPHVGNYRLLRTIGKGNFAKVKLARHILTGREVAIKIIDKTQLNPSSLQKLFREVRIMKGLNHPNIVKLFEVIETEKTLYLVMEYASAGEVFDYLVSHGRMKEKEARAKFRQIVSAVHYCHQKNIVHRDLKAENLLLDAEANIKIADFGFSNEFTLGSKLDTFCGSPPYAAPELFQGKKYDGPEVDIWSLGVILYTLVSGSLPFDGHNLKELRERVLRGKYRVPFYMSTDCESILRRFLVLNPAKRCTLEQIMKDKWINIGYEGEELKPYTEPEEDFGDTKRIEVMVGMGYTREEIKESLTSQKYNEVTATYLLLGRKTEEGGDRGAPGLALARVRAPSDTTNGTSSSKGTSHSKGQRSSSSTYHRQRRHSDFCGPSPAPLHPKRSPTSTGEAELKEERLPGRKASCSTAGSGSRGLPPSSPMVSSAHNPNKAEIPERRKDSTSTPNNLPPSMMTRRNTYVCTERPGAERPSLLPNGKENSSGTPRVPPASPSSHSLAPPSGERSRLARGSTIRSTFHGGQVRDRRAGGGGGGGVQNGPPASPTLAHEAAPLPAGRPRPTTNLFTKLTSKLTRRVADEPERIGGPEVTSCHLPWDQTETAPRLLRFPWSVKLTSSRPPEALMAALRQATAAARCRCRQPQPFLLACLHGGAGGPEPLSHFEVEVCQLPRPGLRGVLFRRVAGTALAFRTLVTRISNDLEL
Serine/threonine-protein kinase OSR1 (Homo sapiens), sequence (O95747 2-527 limits assumed): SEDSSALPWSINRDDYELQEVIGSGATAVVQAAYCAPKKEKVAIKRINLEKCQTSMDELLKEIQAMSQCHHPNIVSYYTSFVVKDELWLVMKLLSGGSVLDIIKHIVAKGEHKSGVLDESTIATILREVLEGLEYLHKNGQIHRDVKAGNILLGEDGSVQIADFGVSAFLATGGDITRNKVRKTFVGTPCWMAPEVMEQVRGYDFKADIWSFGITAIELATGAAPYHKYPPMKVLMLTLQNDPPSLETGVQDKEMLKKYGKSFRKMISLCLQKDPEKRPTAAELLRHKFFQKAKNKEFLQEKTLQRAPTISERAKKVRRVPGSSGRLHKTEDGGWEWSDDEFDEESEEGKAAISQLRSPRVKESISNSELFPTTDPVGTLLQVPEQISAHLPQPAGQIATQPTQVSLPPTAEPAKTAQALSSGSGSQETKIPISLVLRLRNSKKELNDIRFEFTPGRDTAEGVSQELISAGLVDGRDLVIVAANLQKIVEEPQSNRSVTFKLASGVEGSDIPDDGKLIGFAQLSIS
Cytoplasmic tyrosine-protein kinase BMX (Homo sapiens), sequence (P51813 whole entry): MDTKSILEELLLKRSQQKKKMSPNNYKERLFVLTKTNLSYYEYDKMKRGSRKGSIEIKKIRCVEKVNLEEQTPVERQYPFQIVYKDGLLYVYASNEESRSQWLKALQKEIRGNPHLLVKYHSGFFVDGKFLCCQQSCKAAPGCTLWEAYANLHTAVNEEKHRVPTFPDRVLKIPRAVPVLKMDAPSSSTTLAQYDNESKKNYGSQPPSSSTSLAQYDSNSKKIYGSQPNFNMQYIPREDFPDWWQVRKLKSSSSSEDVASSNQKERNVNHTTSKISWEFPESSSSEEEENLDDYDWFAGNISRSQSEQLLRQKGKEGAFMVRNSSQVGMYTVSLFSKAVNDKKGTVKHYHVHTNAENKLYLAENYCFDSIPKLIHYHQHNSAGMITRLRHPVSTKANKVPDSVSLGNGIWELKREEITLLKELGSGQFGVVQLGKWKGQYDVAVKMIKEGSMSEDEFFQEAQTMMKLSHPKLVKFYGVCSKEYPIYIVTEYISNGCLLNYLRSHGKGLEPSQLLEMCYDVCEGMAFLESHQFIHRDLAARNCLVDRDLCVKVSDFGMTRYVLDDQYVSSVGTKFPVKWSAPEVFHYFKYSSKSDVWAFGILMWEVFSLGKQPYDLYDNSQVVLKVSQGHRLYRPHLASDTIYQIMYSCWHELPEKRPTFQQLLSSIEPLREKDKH
Serine/threonine-protein kinase MRCK beta (Homo sapiens), sequence (Q9Y5S2 whole entry, canonical isoform): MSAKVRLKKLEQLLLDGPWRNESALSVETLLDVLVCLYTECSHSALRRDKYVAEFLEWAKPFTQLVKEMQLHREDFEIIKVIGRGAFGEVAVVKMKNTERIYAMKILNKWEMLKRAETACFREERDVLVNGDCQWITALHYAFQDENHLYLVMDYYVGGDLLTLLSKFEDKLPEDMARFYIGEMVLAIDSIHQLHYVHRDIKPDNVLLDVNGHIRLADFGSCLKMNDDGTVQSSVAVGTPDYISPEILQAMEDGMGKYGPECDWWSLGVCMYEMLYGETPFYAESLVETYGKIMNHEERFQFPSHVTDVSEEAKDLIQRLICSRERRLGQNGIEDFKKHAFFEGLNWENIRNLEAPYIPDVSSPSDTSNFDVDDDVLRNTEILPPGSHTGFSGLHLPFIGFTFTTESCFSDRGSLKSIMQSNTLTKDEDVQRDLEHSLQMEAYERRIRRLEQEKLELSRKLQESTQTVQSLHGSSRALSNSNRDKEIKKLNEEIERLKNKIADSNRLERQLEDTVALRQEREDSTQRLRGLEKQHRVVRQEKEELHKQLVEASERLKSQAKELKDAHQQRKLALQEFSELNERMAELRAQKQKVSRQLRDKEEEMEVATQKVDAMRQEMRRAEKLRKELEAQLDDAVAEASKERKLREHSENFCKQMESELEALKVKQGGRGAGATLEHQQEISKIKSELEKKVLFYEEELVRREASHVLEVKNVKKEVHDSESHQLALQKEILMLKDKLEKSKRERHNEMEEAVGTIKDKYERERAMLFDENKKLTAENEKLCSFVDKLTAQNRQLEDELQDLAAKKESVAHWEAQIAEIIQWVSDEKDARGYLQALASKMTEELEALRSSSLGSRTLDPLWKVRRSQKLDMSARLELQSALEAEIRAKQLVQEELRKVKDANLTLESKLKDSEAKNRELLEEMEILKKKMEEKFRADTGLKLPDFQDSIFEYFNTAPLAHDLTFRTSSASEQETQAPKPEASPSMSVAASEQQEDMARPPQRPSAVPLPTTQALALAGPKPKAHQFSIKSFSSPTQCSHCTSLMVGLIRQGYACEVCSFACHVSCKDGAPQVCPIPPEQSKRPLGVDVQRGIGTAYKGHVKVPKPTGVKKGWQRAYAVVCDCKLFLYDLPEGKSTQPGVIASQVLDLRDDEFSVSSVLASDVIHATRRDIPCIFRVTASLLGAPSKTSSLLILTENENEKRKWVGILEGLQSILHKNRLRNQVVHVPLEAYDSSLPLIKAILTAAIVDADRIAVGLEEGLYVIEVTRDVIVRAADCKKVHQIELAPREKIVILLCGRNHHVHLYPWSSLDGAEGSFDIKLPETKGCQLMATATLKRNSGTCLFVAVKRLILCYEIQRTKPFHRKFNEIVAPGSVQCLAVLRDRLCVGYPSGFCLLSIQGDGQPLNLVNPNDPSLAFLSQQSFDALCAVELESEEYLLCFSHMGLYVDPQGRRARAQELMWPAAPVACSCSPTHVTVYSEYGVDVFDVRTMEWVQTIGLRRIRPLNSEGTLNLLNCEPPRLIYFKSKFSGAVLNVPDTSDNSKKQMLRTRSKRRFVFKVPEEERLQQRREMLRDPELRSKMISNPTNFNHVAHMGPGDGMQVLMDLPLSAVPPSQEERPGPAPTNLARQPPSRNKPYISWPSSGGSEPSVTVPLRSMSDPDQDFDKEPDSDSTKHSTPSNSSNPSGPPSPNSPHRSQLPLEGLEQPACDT
Testis-specific serine/threonine-protein kinase 3 (Homo sapiens), sequence (Q96PN8 whole entry): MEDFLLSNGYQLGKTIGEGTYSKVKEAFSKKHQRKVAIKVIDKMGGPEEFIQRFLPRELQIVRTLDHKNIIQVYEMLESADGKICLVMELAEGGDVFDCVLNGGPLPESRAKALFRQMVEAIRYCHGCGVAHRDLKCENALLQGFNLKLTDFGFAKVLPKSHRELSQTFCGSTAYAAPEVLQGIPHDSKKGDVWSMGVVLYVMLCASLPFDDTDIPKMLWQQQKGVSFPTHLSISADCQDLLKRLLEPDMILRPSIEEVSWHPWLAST

With `Nc1cnc(N2CCc3cc(S(=O)(=O)Nc4c(F)cc(Cl)cc4F)cc(N4CCCC4=O)c32)nc1` the residual activity [1] was 98%, the residual activity [2] was 100% and the residual activity [3] was 83%. The residual activity [4] was 97%, the inhibition [5] was -2.69% and the inhibition [6] was -2.82%. For the same molecule, the residual activity [7] was 100%, the residual activity [8] was 100% and the residual activity [9] was 100%. It also gave a residual activity [10] of 99%, an inhibition [11] of 12.9% and a residual activity [12] of 78%. For the same molecule, the residual activity [13] was 100%, the residual activity [14] was 98% and the residual activity [15] was 91%. The residual activity [16] was 100%, the residual activity [17] was 100% and the residual activity [18] was 80%. For the same molecule, the residual activity [19] was 75%, the residual activity [20] was 100% and the residual activity [21] was 89%. The residual activity [22] was 100%, the residual activity [23] was 99% and the residual activity [24] was 79%. For the same molecule, the residual activity [25] was 100%, the inhibition (Rattus norvegicus) was -2.65% and the residual activity [26] was 95%. It also gave a residual activity [27] of 81%, a residual activity [28] of 100% and a residual activity [29] of 74%. For the same molecule, the residual activity [30] was 78%, the inhibition [31] was -1.31% and the residual activity [32] was 100%. For the same molecule, the residual activity [33] was 100%, the residual activity [34] was 100% and the residual activity [35] was 100%. The residual activity [36] was 90%, the residual activity [37] was 100% and the residual activity [38] was 100%. The residual activity [39] was 49%, the residual activity [40] was 100% and the residual activity [41] was 100%. For the same molecule, the residual activity [42] was 89%, the residual activity [43] was 100% and the residual activity [44] was 100%. It also gave a residual activity [45] of 100%.
Work on `Cn1nc(C(F)(F)F)cc1-c1cnc(N2CCc3cc(S(=O)(=O)Nc4c(F)cc(Cl)cc4F)cc(N4CCCC4=O)c32)nc1` [TP-020] yielded a residual activity [1] of 82%, a residual activity [2] of 70% and a residual activity [3] of 93%. For the same molecule, the residual activity [4] was 81%, the inhibition [5] was 10.2% and the inhibition [6] was 8.54%. It also gave a residual activity [7] of 95%, a residual activity [8] of 100% and a residual activity [9] of 100%. For the same molecule, the residual activity [10] was 100%, the inhibition [11] was 24.7% and the residual activity [12] was 100%. The residual activity [13] was 79%, the residual activity [14] was 86% and the residual activity [15] was 100%. The residual activity [16] was 91%, the residual activity [17] was 100% and the residual activity [18] was 93%. It also gave a residual activity [19] of 99%, a residual activity [20] of 100% and a residual activity [21] of 86%. For the same molecule, the residual activity [22] was 83%, the residual activity [23] was 97% and the residual activity [24] was 88%. It also gave a residual activity [25] of 94%, an inhibition (Rattus norvegicus) of -9.93% and a residual activity [26] of 94%. It also gave a residual activity [27] of 88%, a residual activity [28] of 81% and a residual activity [29] of 100%. It also gave a residual activity [30] of 100%, an inhibition [31] of 9.44% and a residual activity [32] of 100%. For the same molecule, the residual activity [33] was 66%, the residual activity [34] was 92% and the residual activity [35] was 100%. It also gave a residual activity [36] of 100%, a residual activity [37] of 99% and a residual activity [38] of 82%. It also gave a residual activity [39] of 65%, a residual activity [40] of 100% and a residual activity [41] of 100%. The residual activity [42] was 94%, the residual activity [43] was 95% and the residual activity [44] was 90%. It also gave a residual activity [45] of 100%.
